Measurements as given in ChEMBL document CHEMBL6109147, “Discovery of Potent STING Inhibitors Bearing a Difluorobenzodioxol Structural Motif as Potent Anti-Inflammatory Agents” (J Med Chem, 2025).
Activity calls are given as the source filed them.

Key:
[1] = Metabolic stability in rat liver microsomes assessed as liver intrinsic clearance; assay type: ADME, Microsome
[2] = test system: Mus musculus; assay: Anti-inflammatory activity in TREX1 D18N mouse model assessed as reduction in Isg56 mRNA expression in heart at 10 mg/kg, ip measured after 2 weeks; assay type: functional, organism-based
[3] = test system: Mus musculus; assay: Effect on Ifn-beta expression in Cisplatin induced C57BL/6 STING-KO mouse kidney inflammation model at 5 mg/kg, ip treated for 3 days by real-time PCR analysis; assay type: functional, organism-based; conditions: time 3.0 day
[4] = test system: Mus musculus; assay: Anti-inflammatory activity against Cisplatin induced C57BL/6 mouse kidney inflammation model assessed as prevention of Cisplatin induced interstitial vacuolation at 5 mg/kg, ip treated for 3 days; assay type: functional, organism-based; conditions: time 3.0 day
[5] = molecular target: T1, Stimulator of interferon genes protein (Mus musculus) (UniProt Q3TBT3); assay: Inhibition of STING downstream signalling in mouse RAW264.7 cells assessed as inhibition of […] induced Cxcl-10 mRNA level pre-treated for 1 hr followed by stimulated with […] measured after 4 hrs by real-time PCR analysis; assay type: cell-based; conditions: dose 0.3-3 µM, time 5.0 hrs
T1 sequence (whole entry): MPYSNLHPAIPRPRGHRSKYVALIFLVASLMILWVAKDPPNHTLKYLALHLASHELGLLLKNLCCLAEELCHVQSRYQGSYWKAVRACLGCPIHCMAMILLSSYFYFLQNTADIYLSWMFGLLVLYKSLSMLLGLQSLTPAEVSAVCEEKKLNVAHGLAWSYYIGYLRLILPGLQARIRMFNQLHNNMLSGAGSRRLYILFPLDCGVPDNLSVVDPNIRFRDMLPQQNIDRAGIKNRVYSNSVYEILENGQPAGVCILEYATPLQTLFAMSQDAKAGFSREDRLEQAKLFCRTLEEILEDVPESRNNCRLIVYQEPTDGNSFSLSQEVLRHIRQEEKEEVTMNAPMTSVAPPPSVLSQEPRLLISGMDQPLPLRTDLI

[6] = molecular target: T1, Stimulator of interferon genes protein (Mus musculus); assay: Inhibition of STING downstream signalling in mouse BMDM cells assessed as inhibition of MSA-2 induced Isg56 mRNA level pre-treated for 1 hr followed by stimulated with MSA-2 measured after 4 hrs by real-time PCR analysis; assay type: cell-based; conditions: dose 0.3-3 µM, time 5.0 hrs
[7] = test system: Mus musculus; assay: Anti-inflammatory activity against MSA-2 induced C57BL/6 mouse inflammation model assessed as inhibition of MSA-2 induced IL-6 level in kidney at 10 mg/kg, ip pre-treated for 1 hr followed by stimulated with MSA-2 for 4 hrs by ELISA; assay type: functional, organism-based; conditions: time 5.0 hrs
[8] = test system: Mus musculus; assay: Anti-inflammatory activity against Cisplatin induced C57BL/6 mouse kidney inflammation model assessed as suppression of Cisplatin induced Ifn-beta mRNA level in kidney at 5 mg/kg, ip treated for 3 days by real-time PCR analysis; assay type: functional, organism-based; conditions: time 3.0 day
[9] = molecular target: T1, Stimulator of interferon genes protein (Mus musculus); assay: Inhibition of STING downstream signalling in mouse RAW264.7 cells assessed as inhibition of […] induced IP-10 secretion level at 0.3 to 3 uM pre-treated for 1 hr followed by stimulated with […] measured after 24 hrs by ELISA; assay type: cell-based; conditions: dose 0.3-3 µM, time 25.0 hrs
[10] = test system: Mus musculus; assay: Anti-inflammatory activity against Cisplatin induced C57BL/6 mouse kidney inflammation model assessed as suppression of Cisplatin induced Isg15 mRNA level in kidney at 5 mg/kg, ip treated for 3 days by real-time PCR analysis; assay type: functional, organism-based; conditions: time 3.0 day
[11] = MRT (0 to infinity) in Sprague-Dawley rat at 3 mg/kg, po; assay type: ADME, organism-based; conditions: in vivo
[12] = test system: Mus musculus; assay: Anti-inflammatory activity against Cisplatin induced C57BL/6 mouse kidney inflammation model assessed as prevention of Cisplatin induced glomerular injury at 5 mg/kg, ip treated for 3 days; assay type: functional, organism-based; conditions: time 3.0 day
[13] = Metabolic stability in human liver microsomes assessed as microsomal intrinsic clearance; assay type: ADME, Microsome; conditions: read-out: CLH
[14] = test system: Mus musculus; assay: Anti-inflammatory activity in TREX1 D18N mouse model assessed as reduction in Ccl5 mRNA expression in kidney at 10 mg/kg, ip measured after 2 weeks; assay type: functional, organism-based
[15] = Metabolic stability in rat liver microsomes assessed as half life; assay type: ADME, Microsome
[16] = molecular target: T1, Stimulator of interferon genes protein (Mus musculus); assay: Inhibition of STING in mouse […] ISG cells assessed as reduction in MSA-2-induced secreted luciferase reporter of interferon stimulated gene (ISG) measured after 24 hrs incubation; assay type: cell-based; conditions: RAW-Lucia ISG
[17] = test system: Mus musculus; assay: Anti-inflammatory activity against MSA-2 induced C57BL/6 mouse inflammation model assessed as inhibition of MSA-2 induced IL-6 mRNA expression in kidney at 10 mg/kg, ip pre-treated for 1 hr followed by stimulated with MSA-2 for 4 hrs by real-time PCR analysis; assay type: functional, organism-based; conditions: time 5.0 hrs
[18] = molecular target: Stimulator of interferon genes protein (Homo sapiens) (UniProt Q86WV6); assay: Inhibition of STING downstream signalling in human THP1-Dual cells assessed as inhibition of MSA-2 induced IP-10 mRNA expression at 0.3 to 3 uM pre-treated for 1 hr followed by stimulated with MSA-2 measured after 4 hrs by real-time PCR analysis; assay type: cell-based; conditions: dose 0.3-3 µM, time 5.0 hrs
[19] = test system: Mus musculus; assay: Anti-inflammatory activity in TREX1 D18N mouse model assessed as reduction in Ccl5 mRNA expression in heart at 10 mg/kg, ip measured after 2 weeks; assay type: functional, organism-based
[20] = molecular target: Stimulator of interferon genes protein (Homo sapiens) (UniProt Q86WV6); assay: Inhibition of human wild type STING (R232) expressed in human 293-Dual hSTING-R232 cells assessed as reduction in cGAMP-induced IL-6 expression; assay type: cell-based
[21] = Cytotoxicity against mouse RAW-Lucia ISG cells assessed as cell viability measured after 24 hrs by CCK8 assay; assay type: toxicity, cell-based
[22] = Oral bioavailability in Sprague-Dawley rat at 3 mg/kg; assay type: ADME, organism-based; conditions: in vivo
[23] = molecular target: T1, Stimulator of interferon genes protein (Mus musculus); assay: Inhibition of STING downstream signalling in mouse BMDM cells assessed as inhibition of MSA-2 induced TBK1 phosphorylation pre-treated for 1 hr followed by stimulated with MSA-2 measured after 4 hrs by Western blot analysis; assay type: cell-based; conditions: dose 0.3-3 µM, time 5.0 hrs
[24] = molecular target: Stimulator of interferon genes protein (Homo sapiens) (UniProt Q86WV6); assay: Inhibition of STING downstream signalling in human THP1-Dual cells assessed as inhibition of HT-DNA induced ISG56 mRNA expression at 0.3 to 3 uM pre-treated for 1 hr followed by stimulated with HT-DNA measured after 4 hrs by real-time PCR analysis; assay type: cell-based; conditions: dose 0.3-3 µM, time 5.0 hrs
[25] = test system: Mus musculus; assay: Anti-inflammatory activity against MSA-2 induced C57BL/6 mouse inflammation model assessed as inhibition of MSA-2 induced Isg15 mRNA expression in kidney at 10 mg/kg, ip pre-treated for 1 hr followed by stimulated with MSA-2 for 4 hrs by real-time PCR analysis; assay type: functional, organism-based; conditions: time 5.0 hrs
[26] = molecular target: Stimulator of interferon genes protein (Homo sapiens) (UniProt Q86WV6); assay: Inhibition of human wild type STING (R232) expressed in human 293-Dual hSTING-R232 cells assessed as reduction in cGAMP-induced TNF-alpha expression; assay type: cell-based
[27] = test system: HEK293; assay: Protection of Cisplatin induced apoptosis in human HEK293 cells assessed as apoptotic cells at 10 uM measured after 72 hrs by flow cytometry; assay type: functional, cell-based
[28] = test system: Mus musculus; assay: Anti-inflammatory activity in TREX1 D18N mouse model assessed as reduction in Cxcl10 mRNA expression in kidney at 10 mg/kg, ip measured after 2 weeks; assay type: functional, organism-based
[29] = test system: Mus musculus; assay: Effect on Isg56 expression in Cisplatin induced C57BL/6 STING-KO mouse kidney inflammation model at 5 mg/kg, ip treated for 3 days by real-time PCR analysis; assay type: functional, organism-based; conditions: time 3.0 day

Chain of Stimulator of interferon genes protein (Homo sapiens) (Q86WV6 whole entry): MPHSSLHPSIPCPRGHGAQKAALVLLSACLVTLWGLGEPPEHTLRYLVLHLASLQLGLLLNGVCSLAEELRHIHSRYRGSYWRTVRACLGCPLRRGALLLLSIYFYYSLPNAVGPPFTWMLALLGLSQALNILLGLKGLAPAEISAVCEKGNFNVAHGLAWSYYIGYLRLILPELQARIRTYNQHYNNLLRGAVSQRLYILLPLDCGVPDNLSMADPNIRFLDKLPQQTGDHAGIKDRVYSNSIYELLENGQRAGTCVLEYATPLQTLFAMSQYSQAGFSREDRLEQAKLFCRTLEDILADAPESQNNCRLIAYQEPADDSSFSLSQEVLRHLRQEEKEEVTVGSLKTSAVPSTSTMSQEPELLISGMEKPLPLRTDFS

N#CC/C=C/c1ccc2[nH]cc(NC(=O)Nc3ccc4c(c3)OC(F)(F)O4)c2c1
38.5 min: half-life [15]
41 µL/min/mg: microsomal CLint [13]
7.66 h: MRT [11]
64.8 µL/min/mg: CLH [1]
Non-toxic: Activity [21]
active: Activity [2] | inhibition [5] Dose-dependent-effect | inhibition [6] Dose-dependent-effect | inhibition [7] | inhibition [8] | inhibition [9] | inhibition [10] | Activity [14] | inhibition [16] Dose-dependent-effect | inhibition [17] | inhibition [18] | Activity [19] | inhibition [20] | inhibition [23] Dose-dependent-effect | inhibition [24] | inhibition [25] | inhibition [26] | Activity [27] | Activity [28]
inactive: Activity [3] | inhibition [4] | inhibition [12] | Activity [29]
12.7%: bioavailability [22]
